Measurements published in patent US20030186817A1, “SUBSTITUTED 2,4-DIAMINO-1,3,5-TRIAZINES, PROCESSES FOR THEIR PREPARATION AND THEIR USE AS HERBICIDES AND PLANT GROWTH REGULATORS” (priority 1998, published 2003).

Tests used:
Assay type in all cases: in vivo
[1] = test system: Cyperus iria and Echinocloa crus-galli; test: Action on weeds in rice (paddy rice conditions, visual rating); settings: dammed height of water 2-3 cm, about three weeks after application; note: test concentration or dose not given here
Description: Typical rice weeds such as Echinocloa crus galli and Cyperus iria are cultivated in a greenhouse under paddy rice conditions ([…] height of water: 2-3 cm). After the treatment, the test plants are set up in a greenhouse under optimum growth conditions and are maintained in this way under these conditions throughout the test period. About three weeks after application, evaluation is made by visual rating of the damage to the plants by comparison with untreated controls.

[2] = test system: Stellaria media, Amaranthus retroflexus, Sinapis avreuse, Avena fatura, Lolium multiflorum and Setaria viridis; test: Post-emergence action against weeds (greenhouse pot test, visual rating); settings: three-leaf stage, application rate of 3.0 kg or less of active substance per hectare, 3 to 4 weeks in greenhouse
Experimental: Seeds of mono- and dicotyledonous weeds are placed in sandy loam soil in cardboard pots, covered with soil and cultivated in a greenhouse under good growth conditions. Two to three weeks after sowing, the test plants are treated at the three-leaf stage. The novel compounds, formulated as wettable powders or emulsion concentrates, are sprayed in various dosages onto the green parts of the plant at an application rate of from 600 to 8001 of water/ha (converted), and, after the test plants have remained in the greenhouse for 3 to 4 weeks under optimum growth conditions, the action of the preparations is rated visually by comparison with untreated controls. The novel compositions also have good post-emergence herbicidal activity against a broad spectrum of economically important weed grasses and broad-leaved weeds.

[3] = test system: Stellaria media, Amaranthus retroflexus, Sinapis avreuse, Avena fatura, Lolium multiflorum and Setaria viridis; test: Pre-emergence action against weeds (greenhouse pot test, visual rating); settings: application rate of 3.0 kg or less of active substance per hectare, trial period of 3 to 4 weeks
Description: Seeds of mono- and dicotyledonous weed plants are placed in sandy loam soil in cardboard pots and covered with soil. The novel compounds, formulated as wettable powders or emulsion concentrates, are then applied to the surface of the soil cover in the form of an aqueous suspension or emulsion at an application rate of from 600 to 800 l of water/ha (converted), in various dosages. After the treatment, the pots are placed in a greenhouse and kept under good growth conditions for the weeds. After the test plants have emerged after a trial period of 3 to 4 weeks, the damage to the plants or the negative effect on emergence is rated visually by comparison with untreated controls. As shown by the test results, the novel compounds have good herbicidal pre-emergence activity against a broad spectrum of weed grasses and broad-leaved weeds.

| Structure (SMILES) | herbicidal activity against rice weeds (visual rating of damage) [1] | herbicidal activity post-emergence (rated visually) [2] | herbicidal activity pre-emergence (damage to the plants or negative effect on emergence, rated visually) [3] |
| --- | --- | --- | --- |
| Cc1ccc(COCC(C)Nc2nc(N)nc(C(C)(C)F)n2)cc1 (stereo not drawn) [Example 183] | very good herbicidal activity | good and in most cases very good herbicidal activity | good and in most cases very good herbicidal activity |
| CCC(CCOc1cccc(Cl)c1)Nc1nc(N)nc(C(C)F)n1 (stereo not drawn) [Example 220] | very good herbicidal activity | good and in most cases very good herbicidal activity | good and in most cases very good herbicidal activity |
| CC(CCOc1cccc(F)c1)Nc1nc(N)nc(C(C)(C)F)n1 (stereo not drawn) [Example 308] | very good herbicidal activity | good and in most cases very good herbicidal activity | good and in most cases very good herbicidal activity |
| CC(CCOc1cc(F)cc(F)c1)Nc1nc(N)nc(C(C)(C)F)n1 (stereo not drawn) [Example 207] | very good herbicidal activity | good and in most cases very good herbicidal activity | good and in most cases very good herbicidal activity |
| CCC(CCOc1ccccc1)Nc1nc(N)nc(C(C)(C)F)n1 (stereo not drawn) [Example 369] | very good herbicidal activity | good and in most cases very good herbicidal activity | good and in most cases very good herbicidal activity |
| Cc1cccc(OCCC(C)Nc2nc(N)nc(C(F)(F)C(F)F)n2)c1 (stereo not drawn) [Example 326] | very good herbicidal activity | good and in most cases very good herbicidal activity | good and in most cases very good herbicidal activity |
| CCC(CCOc1cccc(OC)c1)Nc1nc(N)nc(C(F)(F)C(F)F)n1 (stereo not drawn) [Example 228] | very good herbicidal activity | good and in most cases very good herbicidal activity | good and in most cases very good herbicidal activity |
| Cc1cccc(OCCC(C)Nc2nc(N)nc(C(C)(C)F)n2)c1 (stereo not drawn) [Example 253] | very good herbicidal activity | good and in most cases very good herbicidal activity | good and in most cases very good herbicidal activity |
| CCC(CCOc1cccc(F)c1)Nc1nc(N)nc(C(C)(C)F)n1 (stereo not drawn) [Example 222] | very good herbicidal activity | good and in most cases very good herbicidal activity | good and in most cases very good herbicidal activity |
| CCC(CCOc1ccccc1)Nc1nc(N)nc(C(C)C)n1 (stereo not drawn) [Example 231] | very good herbicidal activity | good and in most cases very good herbicidal activity | good and in most cases very good herbicidal activity |
| COc1cccc(OCCC(C)Nc2nc(N)nc(C(C)(C)F)n2)c1 (stereo not drawn) [Example 303] | very good herbicidal activity | good and in most cases very good herbicidal activity | good and in most cases very good herbicidal activity |
| CC(CCOc1ccccc1)Nc1nc(N)nc(C(C)C)n1 (stereo not drawn) [Example 336] | very good herbicidal activity | good and in most cases very good herbicidal activity | good and in most cases very good herbicidal activity |
| Cc1ccccc1C(=O)OCC(C)Nc1nc(N)nc(C(C)C)n1 (stereo not drawn) [Example 41] | very good herbicidal activity | good and in most cases very good herbicidal activity | good and in most cases very good herbicidal activity |
| CCC(CCOc1cccc(OC)c1)Nc1nc(N)nc(C(C)C)n1 (stereo not drawn) [Example 376] | very good herbicidal activity | good and in most cases very good herbicidal activity | good and in most cases very good herbicidal activity |
| CCC(CCOc1cccc(Cl)c1)Nc1nc(N)nc(C(C)(C)F)n1 (stereo not drawn) [Example 380] | very good herbicidal activity | good and in most cases very good herbicidal activity | good and in most cases very good herbicidal activity |
| CC(CCOc1ccccc1)Nc1nc(N)nc(C(C)(C)F)n1 (stereo not drawn) [Example 368, 2-amino-4-fluoroisopropyl-6-[N-(1-methyl-3-phenoxyprop-1-yl)amino]-1,3,5-triazine] | very good herbicidal activity | good and in most cases very good herbicidal activity | good and in most cases very good herbicidal activity |
| CCC(COC(=O)c1ccccc1C)Nc1nc(N)nc(C(C)C)n1 (stereo not drawn) [Example 42] | very good herbicidal activity | good and in most cases very good herbicidal activity | good and in most cases very good herbicidal activity |
| CC(CCOc1cc(F)cc(F)c1)Nc1nc(N)nc(C(C)C)n1 (stereo not drawn) [Example 281] | very good herbicidal activity | good and in most cases very good herbicidal activity | good and in most cases very good herbicidal activity |
| COc1cccc(OCCC(C)Nc2nc(N)nc(C(F)(F)C(F)F)n2)c1 (stereo not drawn) [Example 311] | very good herbicidal activity | good and in most cases very good herbicidal activity | good and in most cases very good herbicidal activity |
| CCC(CCOc1cccc(F)c1)Nc1nc(N)nc(C(C)C)n1 (stereo not drawn) [Example 381] | very good herbicidal activity | good and in most cases very good herbicidal activity | good and in most cases very good herbicidal activity |
| CCC(CCOc1cccc(C)c1)Nc1nc(N)nc(C(C)(C)F)n1 (stereo not drawn) [Example 245] | very good herbicidal activity | good and in most cases very good herbicidal activity | good and in most cases very good herbicidal activity |
